Measured values taken from patent US20230381170A1, “METHOD FOR TREATING ALS/FTD THROUGH DEGRADATION OF RNA REPEAT EXPANSION” (University of Florida Research Foundation, Incorporated, priority 2020, published 2023).
Like-named read-outs stand apart in the source and are kept apart here.

What was measured:
[1] = system: C9orf72 intron 1 harboring r(G4C2)exp; assay: C9orf72 intron 1 RT-qPCR in patient-derived LCLs; format: cell-based, human; details: disease-affected LCLs
Method: Measuring Levels of C9orf72 and C9orf72 Variants by RT-qPCR. LCLs were seeded in 6-well plate (˜10^6 cells in 2 mL of growth medium) and incubated overnight at 37° C. Cells were then treated with various concentrations of compound for 24 h or with G4C2-ASO and Control-ASO (100 nM), delivered by transfection with Lipofectamine RNAiMax. RNA was extracted as described above and the expression of C9orf72 variants was determined by RT-qPCR. […] For compound treatment well, medium change was performed with fresh compound every 3-4 days. RNA was extracted as described above and the expression of C9orf72 variants was determined by RT-qPCR.

[2] = system: r(G2C2)10; assay: Biolayer interferometry (BLI) binding
Method: (§1) Biolayer Interferometry (BLI). BLI studies were performed similarly as previously described (12) using an Octet RED96. Briefly, 5′-biotinylated nucleic acids were folded by heating at 95° C. for 4 min in 10 mM sodium phosphate buffer, pH 7, followed by slowly cooling to room temperature. Then, to the folded RNA were added the following components: 1.386 mL 1×DPBS (21-031-CV, Corning), 180 μL freshly prepared 1% (w/v) BSA, 36 μL 1% (v/v) Tween-20, and 18 μL DMSO (1% final concentration) in a final volume of 1.8 mL. The final concentration of RNA was 0.5 μM. Separately, serial dilutions of the compound of interest were prepared in the same buffer.
(§2) Streptavidin sensors (SA, #18-5019, ForteBio) were equilibrated with buffer for 10 min at room temperature using 96-well black microplate (Greiner; Catalog #: 655209). The following time intervals were used during data acquisition (30° C. with shaking at 1000 rpm): baseline step, 180 s; loading of RNA, 900 s; washing, 180 s; association of compound, 1800 s; and dissociation of compound, 1800 s. The resulting curves were analyzed and processed using Octet Data Analysis software version 9.1 by subtracting the response of the sensors recorded upon incubation with solutions containing compound and no RNA (parallel reference). The data were then fitted assuming reversible binding using the entire time interval for association and dissociation using either 1:1 or the 2:1 heterogeneous binding curve fitting model. The reported Kd,n, kon,n and koff,n values represent the average of two independent experiments.

[3] = system: d(G4C2)8; assay: Biolayer interferometry (BLI) binding; details: for Kd: BLI
Method: as §1, §2

[4] = system: r(G2C4)8; assay: Biolayer interferometry (BLI) binding
Method: as §1, §2

[5] = system: Poly(GP); assay: poly(GP) in c9ALS iPSC-derived spinal neurons; format: cell-based, human
Method: iPSCs were differentiated into spinal neuron cells using a previously the previously described direct induced motor neuron (diMNs) differentiation protocol (58) with modifications. Briefly, iPSCs were plated into Matrigel-coated 100 mm dishes (30-40% confluence). Neuroepithelial induction was performed by replacing the iPSC maintenance medium with Stage 1 medium [47.5% IMDM (Iscove's Modified Dulbecco's Medium) medium, 47.5% F12 medium, 1% NEAA (Non-Essential Amino Acid) (Life Technologies), 2% B27 (Invitrogen), 1% N2, 1% PSA (Penicillin-Streptomycin-Amphotericin), 0.2 μM LDN193189 (Stemgent), 10 μM SB431542 ([…] Technologies) and 3 μM CHIR99021 (Sigma-Aldrich)]. After daily medium changes for 6 days, cells were detached with Accutase and seeded into 6-well plates (1.5×10^6 cells/well) in 3 mL Stage 2 medium. […]
Measuring Poly(GP) Levels by Electrochemiluminescence. […] Protein concentration was measured by Pierce™ BCA Protein Assay Kit.
Levels of poly(GP) were measured using Meso Scale Discovery MSD Gold 96-well Streptavidin SECTOR plates. […] The conjugated antibodies were desalted with 40K Zeba™ Spin Desalting Columns (Thermo Fisher Scientific), and their concentrations were determined by Pierce™ BCA Protein Assay Kit. […]

Compound | C9orf72 intron 1 levels [1] | selective for r(G4C2)8 over r(G2C2)10 [2] [fold] | Kd ([2]; BLI, read-out: Kd, 1) [nM] | selective for r(G4C2)8 over d(G4C2)8 [3] [fold] | Kd ([3]; read-out: Kd, 1) [nM] | Kd ([3]; read-out: Kd, 2) [nM] | selective for r(G4C2)8 over r(G2C4)8 [4] [fold] | Kd ([4]; BLI, read-out: Kd, 1) [nM] | abundance of poly(GP) [5]
Cc1c2ccncc2c(C)c2c1[nH]c1ccc(OCCOCCOCCNCCOCCOCCOc3ccc4[nH]c5c(C)c6ccncc6c(C)c5c4c3)cc12 [Compound 3] | no effect | ~200 | 800 | ~225 | 900 | 3600 | ~10 | 400 | 
CCOC(=O)C1=C(Nc2ccccc2)S/C(=C\c2ccc(OCCOCCOCCOCCNC(=O)CCC(=O)N(CCOCCOCCOc3ccc4[nH]c5c(C)c6ccncc6c(C)c5c4c3)CCOCCOCCOc3ccc4[nH]c5c(C)c6ccncc6c(C)c5c4c3)c(O)c2)C1=O [Compound 7] |  |  |  |  |  |  |  |  | significant (P<0.05) reduction
